Laboratory results taken from US11976062B2, “Benzisoxazole compound” (OSAKA UNIVERSITY, priority 2018, dated 2024).

How the values were obtained:
TRPC6 channel = target: T1, TRPC6 channel (Homo sapiens, UniProt Q9Y210); test: Calcium assay using HEK293 cells transiently expressing TRPC6 channel, carbachol activation (Fura-2); type: cell-based
T1 construct: expressed in transfected cells; host or cells: HEK293
T1 sequence (Q9Y210 1-931): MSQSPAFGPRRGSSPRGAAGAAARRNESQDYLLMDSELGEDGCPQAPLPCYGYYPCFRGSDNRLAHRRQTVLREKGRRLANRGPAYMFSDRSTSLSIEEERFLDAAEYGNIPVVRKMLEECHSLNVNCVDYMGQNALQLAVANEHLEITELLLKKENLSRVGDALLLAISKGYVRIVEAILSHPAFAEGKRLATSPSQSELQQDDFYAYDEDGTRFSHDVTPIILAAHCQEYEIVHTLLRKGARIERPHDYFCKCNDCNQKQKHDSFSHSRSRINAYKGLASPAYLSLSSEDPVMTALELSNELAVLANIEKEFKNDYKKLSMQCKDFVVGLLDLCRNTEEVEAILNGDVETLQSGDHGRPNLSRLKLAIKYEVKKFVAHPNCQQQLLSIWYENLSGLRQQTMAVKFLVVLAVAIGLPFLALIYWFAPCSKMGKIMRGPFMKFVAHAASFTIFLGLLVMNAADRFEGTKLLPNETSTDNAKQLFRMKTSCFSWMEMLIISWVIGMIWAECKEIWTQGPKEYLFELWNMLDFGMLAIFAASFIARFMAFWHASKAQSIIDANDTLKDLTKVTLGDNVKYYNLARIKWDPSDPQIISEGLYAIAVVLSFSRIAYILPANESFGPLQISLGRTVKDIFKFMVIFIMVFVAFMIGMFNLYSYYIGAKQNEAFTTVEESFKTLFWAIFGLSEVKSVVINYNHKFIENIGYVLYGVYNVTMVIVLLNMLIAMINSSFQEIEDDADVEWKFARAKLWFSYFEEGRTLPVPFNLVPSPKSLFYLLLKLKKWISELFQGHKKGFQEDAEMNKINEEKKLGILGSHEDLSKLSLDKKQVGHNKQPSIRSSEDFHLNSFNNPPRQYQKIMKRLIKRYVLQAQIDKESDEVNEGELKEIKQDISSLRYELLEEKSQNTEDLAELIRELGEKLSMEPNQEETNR
Protocol: A TRPC6 gene was introduced into HEK293 cells (cells derived from human fetal kidney) by lipofection, and the TRPC6 channel was expressed on the cell membrane. Specifically, the plasmid DNA of TRPC6 (pCI-neo; Promega Corporation) was introduced into HEK293 cells using a lipofection reagent, and then cultured at 37° C. for 24 to 48 hours to express the TRPC6 channel on the cell membrane. In the same manner, HEK293 cells into which the TRPC3 gene was introduced were cultured, and the TRPC3 channel was expressed on the cell membrane.
The cultured cells were peeled off with trypsin and seeded on a cover glass again, followed by culturing the cells at 37° C. for 3 hours again. A Fura-2 AM calcium indicator was added to the medium, and the cells were cultured at 37° C. for 30 minutes to allow the cells to incorporate the indicator. For the extracellular solution, a Ca^2+-containing solution and a Ca^2+-free solution were prepared. • Ca^2+-containing solution: 2 mM CaCl2, 132 mM NaCl, 4 mM KCl, 1 mM MgCl2, 5 mM glucose, 5 mM HEPES (pH 7.4) • Ca^2+-free solution: 132 mM NaCl, 4 mM KCl, 1 mM MgCl2, 5 mM glucose, 5 mM HEPES (pH 7.4)
After the cells were added to the Ca^2+-containing solution, the following operation was performed while the fluorescence intensity (510 nm) of Fura-2 was measured at room temperature with an ARGUS CA-20 (Hamamatsu Photonics K.K.) over time. • 0 minutes: TRPC3-expressing cells or TRPC6-expressing cells are placed in a measurement chamber that contains the Ca^2+-containing solution. • After 30 seconds: The Ca^2+-containing solution is replaced with the Ca^2+-free solution. • After 1 minute: A predetermined amount of a test compound is added to the Ca^2+-free solution. • After 3 minutes: Carbachol (100 μM) is added to the Ca^2+-free solution. • After 7 minutes: The Ca^2+-free solution is replaced with the Ca^2+-containing solution that contains a test compound and carbachol […]. • After 15 minutes: Measurement is ended.
Compound 011 was used as the test compound, and the amount of the test compound added was 0.01, 0.1, 0.5, 1.0, 5.0, 10, or 50 μM. For the control, 0.1% DMSO was used in place of the test compound. Carbachol (cch) is a TRPC-channel-activating reagent. Applying carbachol to cells opens the TRPC channel and allows a large amount of Ca^2+ in the extracellular solution to flow into the cells. Fura-2 AM has high cell membrane permeability due to the presence of an AM group (acetoxymethyl group), and is thus easily incorporated into the cells. The AM group is hydrolyzed in the cells to become Fura-2. Thus, Fura-2 can form a chelate with Ca^2+ and is also unlikely to leak out of the cells due to the loss of the AM group.
In the same manner as in Test Example 1, the maximum calcium ion concentration was measured after 7 minutes from the start of measurement (i.e., after replacement with the Ca^2+-containing solution) by using TRPC6-expressing cells prepared in the same manner as in Test Example 1, except that 10 μM of Pyr 4 and 10 μM of compound 011, 031, 041, or 191 (test compound) were used. The average value of calcium ion concentrations up to 30 seconds after the start of measurement (the initial value of calcium ion concentration) was subtracted from the maximum calcium ion concentration, and the calculated value was determined to be the amount of increase in calcium ions. FIG. 3 illustrates the results.
The calcium ion concentration was measured in the same manner as in Test Example 2, except that 10 μM of compound 011, 361, 362(E), 362(Z), 371, 372(Z), 381, or 401 (test compound) was used, and Pyr 4 was not used, thereby determining the amount of increase in calcium ions. Table 2 illustrates the amount of increase in calcium ions for each test compound relative to the amount of increase in calcium ions in the control (DMSO) taken as 100%.

dermal fibroblasts = test: Fibrosis inhibition evaluation 1: cell morphology observation of dermal fibroblasts; type: cell-based, mice; details: dermal fibroblasts cultured 48 hours with TGFβ1

- amount of increase in calcium ions relative to control (DMSO) taken as 100% (TRPC6 channel; 10 μM test compound, carbachol, TRPC6-expressing cells): 21%
- Ca2+ concentration in the cells reached after addition of carbachol (TRPC6 channel; TRPC6, FIG. 1, from about 100 nM, control (DMSO) about 280 nM): about 140 nM
- IC50 (TRPC6 channel; TRPC6-expressing HEK293 cells, carbachol 100 μM, from concentration-response curves, read-out: IC50 for inhibition of the TRPC6 channel): 4.6 µM
Structure (SMILES): O=C(O)c1cnc(N2CCN(c3noc4cccc(C(F)(F)F)c34)CC2)c(Cl)c1 [Compound 011, 5-chloro-6-(4-(4-(trifluoromethyl)benzo[d]isoxazol-3-yl)piperazin-1-yl) nicotinic acid]
- suppression of TRPC6 channel activation (decrease in calcium ion influx, FIG. 3) (TRPC6 channel; 10 μM test compound, carbachol): activation of the TRPC6 channel was suppressed
- cell morphology / cell damage by microscopic observation (dermal fibroblasts): no change in cell morphology and no cell damage
